Measurements published in patent US5877210A, “Phosphotyrosine phosphatase inhibitors or phosphotyrosine kinase activators for controlling cellular proliferation” (priority 1995, dated 1999).

Columns and labels:
ZAP-70 = ZAP-70 tyrosine phosphorylation in T cells; type: cell-based; conditions: 16 h BMLOV, anti-CD3 stimulation
Method: In the experiments shown in FIG. 25, human PHA-induced T cell blasts were treated overnight with the indicated concentrations of BMLOV. In Panel A, the baseline level of intracellular free Ca^2+ ([Ca^2+ ]i) was established for 1 min, and then the cells were treated with biotinylated anti-CD3 mAb (G19-4). After 5 min avidin was added (gap in the trace) to cross-link the antibody. In Panel B, assays were performed as in Panel A, but in the presence of 5 mM EGTA. […] In the experiments shown in FIG. 26, cells were treated 16 h with BMLOV and then stimulated with anti-CD3 mAb G19-4 for 5 min. Cells were then washed and resuspended in fresh media at equal concentrations of BMLOV at 37° C. Cells were then harvested and lysed at times following the initiation of CD3 stimulation as indicated. Antibody binding in immunoblots was detected by ECL.

Raji = assay: Clonogenic assay in methylcellulose; type: cell-based, human; conditions: for colonies formed: seven days
Method: (§1) The selective cytotoxicity of BMLOV was examined in clonogenic assays. Cells were grown in methylcellulose media and the number of colonies formed after seven days of treatment with various doses of the drug were determined. The clonogenic assays were performed with six replicates for each treatment as described [F. M. Uckun et al., J. Exp. Med. 163:347-368 (1986); F. M. Uckun & J. A. Ledbetter, Proc. Natl. Acad. Sci. USA 85:8603-8607 (1988)). The data is given plus/minus the standard error of the mean.
(§2) For assays of cellular proliferation, cells were grown five days in the presence of the indicated concentrations of BMLOV, pulsed 6 hr with [^3 H]-thymidine (New England Nuclear, Boston, Mass.), and counted in a liquid scintillation counter. Human peripheral blood lymphocytes (PBL) from normal volunteers were isolated from lymphocyte separation medium (Litton Bionetics, Kensington, Md.) by density gradient centrifugation. Monocytes were depleted from PBL by two rounds of plastic absorption for 30 minutes at 37° C. B cells were enriched for by negative selection using complement plus monoclonal antibodies to CD2, CD3, CD4, and CD8 for complement depletion. Clonogenic assays of colony formation in methylcellulose medium were performed as previously described (F. M. Uckun et al. (1992), supra).

THP-1 = assay: Clonogenic assay in methylcellulose; type: cell-based, human; conditions: for colonies formed: seven days
Method: as §1, §2

HL-60 = assay: Clonogenic assay in methylcellulose; type: cell-based, human; conditions: for colonies formed: seven days
Method: as §1, §2

Ramos = assay: Clonogenic assay in methylcellulose; type: cell-based, human; conditions: Ramos; for colonies formed: seven days
Method: as §1, §2

T cell line CEM = assay: Clonogenic assay in methylcellulose; type: cell-based, human; conditions: dose as high as 100 μM BMLOV
Method: as §1

i.p. B16 murine melanoma = type: in vivo
Method: The cumulative dose MTD of 54 mg/kg was similar to the 60 mg/kg cumulative MTD observed in the last M109 experiment.

[1] = tested on: subcutaneously implanted human ovarian carcinoma, A2780; assay: In vivo antitumor test, A2780
Method: Finally, pV(phen) was tested against subcutaneously implanted human ovarian carcinoma, A2780, in Experiment No. 54, using a treatment schedule of once daily for 9 days. Treatments (i.p.) were begun on day 10 post implant when the tumors were small but definite, e.g. […]

[2] = tested on: i.p. M109 murine lung carcinoma; assay: In vivo antitumor test, M109; conditions: for Max. % T/C: qd 1→5, ip
Method: The compound pV(phen) was tested for its antitumor activity in vivo. A summary of the antitumor test results is shown below in Table 13. In the i.p. M109 murine lung carcinoma model (Experiment No. 330; Table 13), consecutive daily i.p. injections each day from day 1 to 5 were effective in achieving an active result. […] A maximum T/C of 143%, consistent with the first result, was obtained.

[3] = Expt. 54, OD 12 mg/kg/inj, qdx9;10, ip

Cc1occc(=O)c1[O-].Cc1occc(=O)c1[O-].[O]=[V+2] [BMLOV, Bis(maltolato)oxovanadium (IV)] was tested, and the “tyrosine phosphorylation of ZAP-70 or the associated zeta chain” value (ZAP-70) was “little effect was observed”, the “percentage of inhibition of clonogenic growth” value (Raji; 1 μM BMLOV) was 60.3% and the colonies formed (Raji; 1 μM BMLOV) was 1291 ± 283 colonies per 10^4 cells. For the same compound, the “percentage of inhibition of clonogenic growth” value (Raji; 5 μM BMLOV) was 99.9%, the colonies formed (Raji; 5 μM BMLOV) was 4 ± 0.6 colonies per 10^4 cells and the colonies formed (Raji; 10 μM BMLOV) was 3 ± 0.8 colonies per 10^4 cells. For the same compound, the “percentage of inhibition of clonogenic growth” value (THP-1; 1 μM BMLOV) was 75.0%, the colonies formed (THP-1; 1 μM BMLOV) was 1613 ± 235 colonies per 10^4 cells and the “percentage of inhibition of clonogenic growth” value (THP-1; 5 μM BMLOV) was 98.0%. For the same compound, the colonies formed (THP-1; 5 μM BMLOV) was 127 ± 35 colonies per 10^4 cells, the “percentage of inhibition of clonogenic growth” value (THP-1; 10 μM BMLOV) was 98% and the colonies formed (THP-1; 10 μM BMLOV) was 127 ± 35 colonies per 10^4 cells. The “percentage of inhibition of clonogenic growth” value (HL-60; 1 μM BMLOV) was 99.4%, the colonies formed (HL-60; 1 μM BMLOV) was 31 ± 8 colonies per 10^4 cells and the “percentage of inhibition of clonogenic growth” value (HL-60; 5 μM BMLOV) was 99.4%. For the same compound, the colonies formed (HL-60; 5 μM BMLOV) was 31 ± 8 colonies per 10^4 cells, the “percentage of inhibition of clonogenic growth” value (HL-60; 10 μM BMLOV) was 99.7% and the colonies formed (HL-60; 10 μM BMLOV) was 15 ± 4 colonies per 10^4 cells. The “percentage of inhibition of clonogenic growth” value (Ramos; 1 μM BMLOV) was 95.6%, the colonies formed (Ramos; 1 μM BMLOV) was 179 ± 33 colonies per 10^4 cells and the “percentage of inhibition of clonogenic growth” value (Ramos; 5 μM BMLOV) was 99.8%. The colonies formed (Ramos; 5 μM BMLOV) was 7 ± 2 colonies per 10^4 cells, the “percentage of inhibition of clonogenic growth” value (Ramos; 10 μM BMLOV) was “greater than 99.9%” and the colonies formed (Ramos; 10 μM BMLOV) was 0 colonies per 10^4 cells. The “inhibition of clonogenic growth” value (T cell line CEM) was “inhibited only moderately”.

[Na+].[O]=[V-]12([O][O]1)[O][O]2.c1cnc2c(c1)ccc1cccnc12 [pV(phen), sodium (1,10-phenanthroline) oxodiperoxovanadium (V)] was tested, and the “Max. % T/C” value (i.p. B16 murine melanoma; Expt. 799, 6 mg/kg/inj (MTD reached), qd 1→9, ip) was 152%, the “maximum tolerated dose (MTD)” value (i.p. B16 murine melanoma; mouse, in vivo, ip) was 6 mg/kg per injection and the “LCK (log cell kill)” value [1, 3] was 0.4. The “T-C (delay in primary tumor growth)” value [1, 3] was 4.0 days, the MTD ([1]; once daily for 9 days, i.p., cumulative dose of 45 mg/kg) was 5 mg/kg per injection and the “Max. % T/C” value ([2]; Expt. 330, 12 mg/kg/inj) was 144%. The “Max. % T/C” value ([2]; Expt. 333, 12 mg/kg/inj (MTD reached)) was 143% and the “cumulative MTD” value ([2]; last M109 experiment) was 60 mg/kg.
